Common to all, as to assay: Kinase panel (mobility shift)
Common to all, as to assay type: biochemical

Assay [1] addresses T1, MER (Homo sapiens, UniProt Q12866).
T1 sequence (Q12866 21-999): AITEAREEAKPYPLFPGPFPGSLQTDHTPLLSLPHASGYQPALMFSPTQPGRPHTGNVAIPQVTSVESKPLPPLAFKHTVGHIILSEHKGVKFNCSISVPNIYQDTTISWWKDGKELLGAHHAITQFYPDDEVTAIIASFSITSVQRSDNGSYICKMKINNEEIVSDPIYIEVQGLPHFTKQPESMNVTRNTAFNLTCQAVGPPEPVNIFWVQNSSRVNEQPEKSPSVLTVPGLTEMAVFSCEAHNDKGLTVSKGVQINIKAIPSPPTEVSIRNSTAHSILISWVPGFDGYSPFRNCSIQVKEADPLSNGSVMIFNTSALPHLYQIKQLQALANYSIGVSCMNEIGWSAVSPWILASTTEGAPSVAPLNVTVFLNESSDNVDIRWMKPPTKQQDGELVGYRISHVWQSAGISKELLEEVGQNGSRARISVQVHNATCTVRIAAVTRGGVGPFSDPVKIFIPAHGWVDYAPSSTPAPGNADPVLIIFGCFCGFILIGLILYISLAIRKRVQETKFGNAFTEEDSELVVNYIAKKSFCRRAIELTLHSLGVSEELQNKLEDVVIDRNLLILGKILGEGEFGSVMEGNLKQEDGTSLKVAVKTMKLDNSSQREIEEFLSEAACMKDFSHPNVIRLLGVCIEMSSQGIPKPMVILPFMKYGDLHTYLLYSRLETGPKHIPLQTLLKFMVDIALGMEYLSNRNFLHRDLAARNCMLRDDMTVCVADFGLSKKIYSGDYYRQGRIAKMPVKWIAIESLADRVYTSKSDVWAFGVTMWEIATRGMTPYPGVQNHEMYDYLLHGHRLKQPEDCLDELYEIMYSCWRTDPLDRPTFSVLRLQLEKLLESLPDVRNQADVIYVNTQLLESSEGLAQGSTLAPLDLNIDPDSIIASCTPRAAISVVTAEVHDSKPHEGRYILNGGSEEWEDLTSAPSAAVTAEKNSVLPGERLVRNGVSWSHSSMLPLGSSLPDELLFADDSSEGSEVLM
Put shortly:
(§1)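 Microfluidic mobility-shift readout: product and substrate peaks are resolved by charge, and their fluorescence is compared to give enzyme activity. Enzyme, fluorescent substrate and test compound are reacted, then terminated before chip loading. Values are binned at 5 um: A 95% or greater, B 90%-94%, C 80%-89%.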

Assay [2] addresses PDGFR-b (Homo sapiens, UniProt P09619). Summed up:
as §1

Assay [3] concerns the target RIPK2 (Homo sapiens, UniProt O43353). Summed up: as §1
Assay [4] concerns the target SRC (Homo sapiens, UniProt P12931). Put shortly:
as §1

Assay [5] addresses T2, TAOK3 (Homo sapiens, UniProt Q9H2K8).
T2 sequence (Q9H2K8 1-898): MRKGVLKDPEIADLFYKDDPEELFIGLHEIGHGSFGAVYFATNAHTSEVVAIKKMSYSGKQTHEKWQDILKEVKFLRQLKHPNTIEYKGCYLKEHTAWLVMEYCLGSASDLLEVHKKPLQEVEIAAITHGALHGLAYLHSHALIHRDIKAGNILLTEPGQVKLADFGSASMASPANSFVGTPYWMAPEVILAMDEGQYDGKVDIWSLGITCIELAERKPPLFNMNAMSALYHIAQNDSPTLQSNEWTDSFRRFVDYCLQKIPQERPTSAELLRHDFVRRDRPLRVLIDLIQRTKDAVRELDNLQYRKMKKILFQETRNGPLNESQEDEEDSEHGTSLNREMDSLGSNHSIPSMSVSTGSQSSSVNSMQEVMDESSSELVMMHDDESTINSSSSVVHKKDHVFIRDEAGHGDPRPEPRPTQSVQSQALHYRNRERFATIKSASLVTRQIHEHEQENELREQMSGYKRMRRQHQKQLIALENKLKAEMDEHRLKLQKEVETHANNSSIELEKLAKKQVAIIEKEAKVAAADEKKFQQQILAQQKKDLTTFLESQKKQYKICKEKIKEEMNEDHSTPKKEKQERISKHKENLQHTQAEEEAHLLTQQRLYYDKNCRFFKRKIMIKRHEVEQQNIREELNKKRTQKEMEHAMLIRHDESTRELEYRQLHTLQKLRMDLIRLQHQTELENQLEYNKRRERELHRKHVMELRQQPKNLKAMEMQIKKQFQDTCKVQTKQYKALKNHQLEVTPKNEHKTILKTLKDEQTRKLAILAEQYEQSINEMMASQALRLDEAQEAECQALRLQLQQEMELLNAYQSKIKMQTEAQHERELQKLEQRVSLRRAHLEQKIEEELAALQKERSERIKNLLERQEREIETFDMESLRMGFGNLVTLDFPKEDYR
Summed up:
as §1

For assay [6], the target named is TRKB (Homo sapiens, UniProt Q16620). Put shortly:
as §1

PDGFR-b, sequence (P09619 33-1106, species assumed): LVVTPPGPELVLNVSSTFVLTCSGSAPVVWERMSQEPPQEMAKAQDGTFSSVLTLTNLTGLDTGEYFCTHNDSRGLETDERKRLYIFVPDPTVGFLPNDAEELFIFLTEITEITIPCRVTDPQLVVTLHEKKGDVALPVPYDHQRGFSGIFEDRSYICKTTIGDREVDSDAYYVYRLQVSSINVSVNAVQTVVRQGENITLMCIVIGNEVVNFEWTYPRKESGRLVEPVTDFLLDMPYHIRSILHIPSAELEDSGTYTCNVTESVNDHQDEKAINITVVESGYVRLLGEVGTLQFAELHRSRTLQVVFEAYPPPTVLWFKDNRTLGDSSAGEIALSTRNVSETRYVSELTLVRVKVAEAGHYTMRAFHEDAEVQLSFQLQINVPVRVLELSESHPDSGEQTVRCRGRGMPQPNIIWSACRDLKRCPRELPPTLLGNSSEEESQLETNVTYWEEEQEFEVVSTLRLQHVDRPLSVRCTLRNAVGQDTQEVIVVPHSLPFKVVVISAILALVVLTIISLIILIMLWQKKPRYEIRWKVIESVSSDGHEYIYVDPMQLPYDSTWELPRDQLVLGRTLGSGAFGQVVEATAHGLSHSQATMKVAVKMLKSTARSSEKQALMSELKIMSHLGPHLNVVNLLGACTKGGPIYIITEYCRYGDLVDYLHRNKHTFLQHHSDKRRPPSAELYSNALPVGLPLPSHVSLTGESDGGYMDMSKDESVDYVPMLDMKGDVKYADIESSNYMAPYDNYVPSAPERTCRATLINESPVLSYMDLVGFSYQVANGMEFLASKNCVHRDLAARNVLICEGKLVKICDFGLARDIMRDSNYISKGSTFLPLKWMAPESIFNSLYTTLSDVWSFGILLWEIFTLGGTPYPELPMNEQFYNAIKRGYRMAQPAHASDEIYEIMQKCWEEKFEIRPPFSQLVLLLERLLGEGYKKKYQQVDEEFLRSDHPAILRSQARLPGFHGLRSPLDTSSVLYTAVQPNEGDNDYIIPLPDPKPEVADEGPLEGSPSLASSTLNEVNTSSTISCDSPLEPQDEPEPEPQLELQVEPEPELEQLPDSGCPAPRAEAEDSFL
TRKB, sequence (Q16620 32-822, species assumed): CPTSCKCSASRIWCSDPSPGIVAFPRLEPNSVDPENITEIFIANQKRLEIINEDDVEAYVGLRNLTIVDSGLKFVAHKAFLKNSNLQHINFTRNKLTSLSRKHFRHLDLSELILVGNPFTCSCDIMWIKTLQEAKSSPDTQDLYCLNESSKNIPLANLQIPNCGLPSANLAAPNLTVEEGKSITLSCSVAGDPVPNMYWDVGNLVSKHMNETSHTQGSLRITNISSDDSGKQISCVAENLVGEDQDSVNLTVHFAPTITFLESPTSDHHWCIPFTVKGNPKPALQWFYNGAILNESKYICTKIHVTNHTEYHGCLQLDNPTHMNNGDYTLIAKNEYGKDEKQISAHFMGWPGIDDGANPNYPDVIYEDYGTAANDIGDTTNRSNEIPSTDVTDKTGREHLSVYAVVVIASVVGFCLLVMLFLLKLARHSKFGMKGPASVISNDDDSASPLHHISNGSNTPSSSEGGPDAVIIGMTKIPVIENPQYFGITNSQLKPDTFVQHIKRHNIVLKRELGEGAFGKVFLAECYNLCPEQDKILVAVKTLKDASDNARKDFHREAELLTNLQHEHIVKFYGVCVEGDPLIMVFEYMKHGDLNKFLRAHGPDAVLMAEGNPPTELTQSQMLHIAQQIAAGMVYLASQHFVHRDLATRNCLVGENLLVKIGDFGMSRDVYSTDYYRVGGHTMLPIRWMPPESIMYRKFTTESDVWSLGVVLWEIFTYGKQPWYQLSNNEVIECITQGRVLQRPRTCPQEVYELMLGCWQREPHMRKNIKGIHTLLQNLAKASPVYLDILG
SRC, sequence (P12931 whole entry, species assumed): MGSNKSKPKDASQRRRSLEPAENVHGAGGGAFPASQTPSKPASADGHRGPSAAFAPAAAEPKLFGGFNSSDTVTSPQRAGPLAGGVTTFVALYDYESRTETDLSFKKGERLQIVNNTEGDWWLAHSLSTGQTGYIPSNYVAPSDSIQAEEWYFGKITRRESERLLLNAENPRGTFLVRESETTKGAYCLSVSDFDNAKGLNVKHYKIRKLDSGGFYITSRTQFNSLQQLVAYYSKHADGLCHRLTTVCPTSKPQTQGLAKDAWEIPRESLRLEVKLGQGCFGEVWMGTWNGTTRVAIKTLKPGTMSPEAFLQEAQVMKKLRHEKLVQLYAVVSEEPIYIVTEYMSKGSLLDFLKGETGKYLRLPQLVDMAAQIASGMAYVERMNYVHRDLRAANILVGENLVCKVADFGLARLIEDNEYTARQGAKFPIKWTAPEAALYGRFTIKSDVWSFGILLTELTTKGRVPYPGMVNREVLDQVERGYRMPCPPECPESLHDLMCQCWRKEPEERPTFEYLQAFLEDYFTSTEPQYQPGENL
RIPK2, sequence (O43353 whole entry, species assumed): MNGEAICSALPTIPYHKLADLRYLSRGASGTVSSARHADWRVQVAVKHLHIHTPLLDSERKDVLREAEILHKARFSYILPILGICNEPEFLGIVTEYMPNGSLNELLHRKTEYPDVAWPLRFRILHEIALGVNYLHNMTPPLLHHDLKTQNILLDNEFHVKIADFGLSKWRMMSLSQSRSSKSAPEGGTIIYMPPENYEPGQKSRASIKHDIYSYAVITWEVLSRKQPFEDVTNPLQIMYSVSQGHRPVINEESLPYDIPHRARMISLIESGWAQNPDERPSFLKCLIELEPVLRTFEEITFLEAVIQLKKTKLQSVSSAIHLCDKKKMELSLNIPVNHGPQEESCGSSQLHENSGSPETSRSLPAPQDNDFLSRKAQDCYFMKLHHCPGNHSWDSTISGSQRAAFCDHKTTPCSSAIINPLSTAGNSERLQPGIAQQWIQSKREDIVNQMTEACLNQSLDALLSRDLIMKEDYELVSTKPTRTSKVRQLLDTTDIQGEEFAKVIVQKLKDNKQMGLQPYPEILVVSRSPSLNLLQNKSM

By inhibition is commonly meant the share of the control response that was lost under treatment. As for `CSc1nc(C(=O)Nc2ccc(Oc3ccnc(N)c3Cl)c(F)c2)c(-c2ccc(F)cc2)o1` [Compound 1], the inhibition at 5 µM in assay [1], in assay [2], in assay [3], in assay [4], in assay [5] and in assay [6] was less than 50% each time.

With `CSc1nc(C(=O)Nc2ccc(Oc3cc4cnn(C)c4cc3Br)c(F)c2)c(-c2ccc(F)cc2)o1` [Compound 2], the inhibition at 5 µM in assay [1], in assay [2], in assay [3], in assay [4], in assay [5] and in assay [6] was less than 50% throughout.

Consider `CNC(=O)c1cc(Oc2ccc(NC(=O)c3nc(SC)oc3-c3ccc(F)cc3Cl)cc2)ccn1` [Compound 3], for which the inhibition at 5 µM was 90 to 94% in assay [1]; less than 50% in assay [2]; 90 to 94% in assay [3]; 80 to 89% in assay [4]; less than 50% in assay [5]; 80 to 89% in assay [6].

Consider `CNC(=O)c1cc(Oc2ccc(NC(=O)c3nc(SC)oc3-c3ccc(F)c(F)c3)cc2)ccn1` [Compound 4], for which the inhibition at 5 µM in assay [1] is 50 to 79%; in assay [2], less than 50%; in assay [3], 80 to 89%; in assay [4], less than 50%; in assay [5], 50 to 79%; in assay [6], less than 50%.

`CNC(=O)c1cc(Oc2ccc(NC(=O)c3nc(SC)oc3-c3ccc(Cl)s3)cc2)ccn1` [Compound 5]: the inhibition at 5 µM in assay [1] was less than 50%; in assay [2], less than 50%; in assay [3], 50 to 79%; in assay [4], less than 50%; in assay [5] it was less than 50%; in assay [6] it was less than 50%.

As for `CNC(=O)c1cc(Oc2ccc(NC(=O)c3nc(SC)oc3-c3ccc(F)cc3F)cc2)ccn1` [Compound 6], the inhibition at 5 µM in assay [1] was 90 to 94%; in assay [2], less than 50%; in assay [3] it was not below 95%; in assay [4] it was 80 to 89%; in assay [5], less than 50%; in assay [6], 90 to 94%.

Consider `CNC(=O)c1cc(Oc2ccc(NC(=O)c3nc(SC)oc3-c3ccc(OC)cc3)cc2)ccn1` [Compound 7], for which the inhibition at 5 µM in assay [1], in assay [2], in assay [3], in assay [4], in assay [5] and in assay [6] was less than 50% in each case.

On to `CSc1nc(C(=O)Nc2ccc(Oc3ccnc(-c4cnn(C)c4)c3)c(F)c2)c(-c2ccc(F)cc2)o1` [Compound 11], for which the inhibition at 5 µM in assay [1] is 90 to 94%; in assay [2] it was less than 50%; in assay [3], 50 to 79%; in assay [4], 50 to 79%; in assay [5], less than 50%; in assay [6], 50 to 79%.

For `CNC(=O)c1cc(Oc2ccc(NC(=O)c3nc(SC)oc3-c3ccc(F)cc3F)cc2F)ccn1` [Compound 12], the inhibition at 5 µM in assay [1] was 80 to 89%; in assay [2] it was less than 50%; in assay [3], 90 to 94%; in assay [4], 50 to 79%; in assay [5], 50 to 79%; in assay [6], 80 to 89%.

On to `CNC(=O)c1cc(Oc2ccc(NC(=O)c3nc(S(C)(=O)=O)sc3-c3ccc(F)cc3)cc2F)ccn1` [Compound 13], for which the inhibition at 5 µM in assay [1] is 80 to 89%; in assay [2] it was less than 50%; in assay [3], 80 to 89%; in assay [4], less than 50%; in assay [5], less than 50%; in assay [6] it was 50 to 79%.

For the compound `CNC(=O)c1cc(Oc2ccc(NC(=O)c3nc(NC)oc3-c3ccc(F)cc3)cc2F)ccn1` [Compound 14], the inhibition at 5 µM in assay [1] is 50 to 79%; in assay [2] it was less than 50%; in assay [3] it was 90 to 94%; in assay [4], less than 50%; in assay [5] it was 90 to 94%; in assay [6], 90 to 94%.

As to `CNC(=O)c1cc(Oc2ccc(NC(=O)c3nc(OC)oc3-c3ccc(F)cc3)cc2F)ccn1` [Compound 15], the inhibition at 5 µM in assay [1] is 50 to 79%; in assay [2], less than 50%; in assay [3] it was 80 to 89%; in assay [4], less than 50%; in assay [5], less than 50%; in assay [6] it was 50 to 79%.

As to `CNC(=O)c1cc(Oc2ccc(NC(=O)c3nc(SC)oc3-c3ccc(F)s3)cc2F)ccn1` [Compound 16], the inhibition at 5 µM in assay [1], in assay [2], in assay [3], in assay [4], in assay [5] and in assay [6] was less than 50% throughout.

As for `CNC(=O)c1cc(Oc2ccc(NC(=O)c3nc(NC)oc3-c3ccc(F)s3)cc2F)ccn1` [Compound 17], the inhibition at 5 µM was less than 50% in assay [1]; less than 50% in assay [2]; less than 50% in assay [3]; less than 50% in assay [4]; less than 50% in assay [5]; 50 to 79% in assay [6].

On to `CNC(=O)c1cc(Oc2c(F)cc(NC(=O)c3nc(NC)sc3-c3ccc(F)cc3)cc2F)ccn1` [Compound 19], for which the inhibition at 5 µM in assay [1] was 50 to 79%; in assay [2] it was less than 50%; in assay [3], 50 to 79%; in assay [4], less than 50%; in assay [5], 50 to 79%; in assay [6], less than 50%.

For `CNC(=O)c1cc(Oc2ccc(NC(=O)c3nc(NC)sc3-c3ccc(F)cc3F)cc2F)ccn1` [Compound 21], the inhibition at 5 µM was less than 50% in assay [1]; less than 50% in assay [2]; 50 to 79% in assay [3]; less than 50% in assay [4]; 50 to 79% in assay [5]; 50 to 79% in assay [6].

In the case of `CNC(=O)c1cc(Oc2ccc(NC(=O)c3nc(NC)sc3-c3ccc(F)cc3C)cc2F)ccn1` [Compound 23], the inhibition at 5 µM was 50 to 79% in assay [1]; less than 50% in assay [2]; 80 to 89% in assay [3]; less than 50% in assay [4]; 50 to 79% in assay [5]; 80 to 89% in assay [6].

As for `CNC(=O)c1cc(Oc2ccc(NC(=O)c3nc(OC)oc3-c3ccc(F)c(F)c3)cc2F)ccn1` [Compound 24], the inhibition at 5 µM was less than 50% in assay [1]; less than 50% in assay [2]; 50 to 79% in assay [3]; less than 50% in assay [4]; less than 50% in assay [5]; less than 50% in assay [6].

The record behind these values is patent US11629143B2, “HipK4 inhibitors and uses thereof” (Vibliome Therapeutics, LLC, priority 2020, dated 2023).
